{"source": "a melting point compilation (Tetko et al.; mined from patent text by program, amines drawn as free bases though some values may be those of a salt)"}
{"units": {"melting point": "°C"}}
{"smiles": "O=C1NCN(c2ccc(Br)cc2)C12CCN(C1C=CC(c3ccc(F)cc3)(c3ccc(F)cc3)CC1)CC2", "note": "(stereo not given)", "melting point": "219 to 221"}
{"smiles": "CC1(C)N=C(CCO)C2=C(N1)N(Cc1ccccc1)C(=O)C(N)O2", "note": "(stereo not given)", "melting point": "124 to 126"}
{"smiles": "CN(C)CC(C)(C)Cn1ccc(-c2ccc(F)cc2)c1-c1ccncc1", "melting point": "101 to 103"}
{"smiles": "CCOC(=O)c1cn(Cc2ccccc2OC)c2sc(-c3ccc(OC)cc3)c(C)c2c1=O", "melting point": "165 to 167"}
{"smiles": "COC(=O)c1cc(C(=O)N2CCC(O)CC2)cc(-n2cccc2)c1", "melting point": "158 to 159"}
{"smiles": "Cc1cccc(C(=O)Cc2ccnc(N)c2)c1", "melting point": "119 to 120"}
{"smiles": "CC(C(=O)OC(C)(C)C)C(C)(O)c1ccc(Cl)nc1NC(=O)C(C)(C)C", "note": "(stereo not given)", "melting point": "146 to 148"}
{"smiles": "OC(CNC1CC1)c1ccc(Br)cc1", "note": "(stereo not given)", "melting point": "105 to 107"}
{"smiles": "ON=Cc1ccc(Cl)c(Cl)c1OCc1ccccc1", "melting point": "64 to 69"}
{"smiles": "Cc1cc(C)c(-c2cn(C)c3nc(N)[nH]c(=O)c23)c(C)c1", "melting point": "184 to 186"}
{"smiles": "COCCOCOc1c(C(C)(C)C)cc(C(=N)NN)cc1C(C)(C)C", "melting point": 133}
{"smiles": "CS(=O)(=O)c1ccc(-c2nc3cc(C4=CCN(S(=O)(=O)CCCO)CC4)ccc3o2)c(F)c1", "melting point": "184 to 186"}
{"smiles": "O=S(=O)(Nc1cccc2cc(-c3ccccn3)[nH]c12)c1cccs1", "melting point": "161 to 162"}
{"smiles": "CNc1nc(-c2cccc(-c3ccccc3)c2)c2cc(OC)c(OC)cc2n1", "melting point": "183 to 185"}
{"smiles": "O=C(Nc1ccc(-c2nnn[nH]2)cc1)C(F)(F)C(F)(F)C(F)(F)F", "melting point": "266 to 268"}
{"smiles": "C=CCN(NC(=O)c1ccc(Cl)c(S(N)(=O)=O)c1)c1ccccc1", "melting point": "99 to 101"}
{"smiles": "CC(C(=O)c1ccco1)N1CCN(c2ccc(CO)c(Cl)c2)CC1", "note": "(stereo not given)", "melting point": "95 to 98"}
{"smiles": "O=[N+]([O-])c1ccc(CSc2cc(Cl)nc3c2ncn3C2OC(CO)C(O)C2O)cc1", "note": "(stereo not given)", "melting point": "162 to 165"}
{"smiles": "COc1cc(C)c(C(C)O)cc1NC(=O)N1CCN(c2cc(C)cc(C)c2)CC1", "note": "(stereo not given)", "melting point": "140 to 142"}
{"smiles": "COC(=O)c1c(SCc2ccc(OC)cc2)ncn1Cc1cc2c(cc1Cl)OCO2", "melting point": 123}
{"smiles": "CCCCOc1ccc2c(=O)c(S(C)=O)cn(C)c2c1", "note": "(stereo not given)", "melting point": "148 to 150"}
{"smiles": "C[C@@H]1S[C@@H](C(=O)Nc2ccc(CN3CCSCC3)cc2)Cc2cc3c(cc2C1=O)OCO3", "melting point": "204 to 206"}
{"smiles": "O=C(Nc1cccc(F)c1)c1cccc(Oc2cccc(C(F)(F)F)c2)n1", "melting point": "74 to 75"}
{"smiles": "CCOC(=O)C(=CNC1CC1)C(=O)c1cc(F)c(N2CCC(NC(C)=O)C2)nc1Cl", "note": "(stereo not given)", "melting point": "71 to 75"}
{"smiles": "Cc1cc(C#N)cc(C(C#N)c2nc(OCc3ccccc3)nc(OCc3ccccc3)c2C(C)(C)C)c1", "note": "(stereo not given)", "melting point": "126 to 128"}
{"smiles": "CC(=O)N1CCN=C1Nc1cc(C)nn1Cc1ccccc1", "melting point": "148 to 149"}
{"smiles": "COc1cc(OC)nc(Oc2ccc3c(c2C(=O)O)OCO3)n1", "melting point": "198 to 201"}
{"smiles": "Cc1nc(O)c(-c2ccc(S(C)(=O)=O)cc2)s1", "melting point": "216 to 226"}
{"smiles": "Cc1cc(OCCCNCCC(N)=O)ccc1Cc1c(OC2OC(CO)C(O)C(O)C2O)n[nH]c1C(C)C", "note": "(stereo not given)", "melting point": "191 to 193"}
{"smiles": "CC1CCc2ccc(N)c3c(=O)c(C(=O)O)cn1c23", "note": "(stereo not given)", "melting point": "247 to 249"}
{"smiles": "CC(C)OC(=O)c1cc(-n2c(=O)cc(C(F)(F)F)[nH]c2=O)c(F)cc1Cl", "melting point": "127 to 129"}
{"smiles": "Cc1cc(CCCOc2c(C)cc(C(=N)NO)cc2C)on1", "melting point": "129 to 130"}
{"smiles": "N#Cc1cc(C(F)(F)F)n(Cc2ccccc2)c1-c1ccc(Cl)cc1", "melting point": "104 to 106"}
{"smiles": "CCCCCC1CCc2cc(C(=O)Oc3ccc(CCCC)cc3)ccc2C1", "note": "(stereo not given)", "melting point": 48.1}
{"smiles": "O=C(NCc1ccn(C2=CC3=C(CC2)CCc2[nH]c(=O)c(=O)n(O)c23)c1)Nc1ccc(C(=O)O)cc1", "melting point": "> 300"}
{"smiles": "COc1ccc(-c2nc3ccc(C(C)(C)CNC(=O)C(C)C)cc3[nH]2)cc1", "melting point": "218 to 220"}
{"smiles": "CC(=O)N1CCc2cc(C(O)CN(Cc3ccccc3)Cc3ccccc3)ccc21", "note": "(stereo not given)", "melting point": 116}
{"smiles": "COc1cc(OC)nc(NC(=O)NS(=O)(=O)c2c(C)nsc2OCC(Cl)(Cl)Cl)n1", "melting point": "176 to 180"}
{"smiles": "Nc1cc(N2CCOCC2)cc(C(F)(F)F)c1", "melting point": "96 to 97"}
{"smiles": "Cc1ccc(-n2c(-c3ccc(-c4ccc(-c5nc6c7ccccc7c7ccccc7c6n5-c5ccc(C)cc5)cc4)cc3)nc3c4ccccc4c4ccccc4c32)cc1", "melting point": 405}
{"smiles": "CC(=O)NC1=NCC(c2ccccc2)CN1", "note": "(stereo not given)", "melting point": "246 to 249"}
{"smiles": "COc1ccc([C@@H]2Sc3cc(Cl)ccc3N(CCCCl)C(=O)[C@@H]2O)cc1", "note": "(relative stereo)", "melting point": "103 to 106"}
{"smiles": "CC(=Cc1ccsc1Cl)[N+](=O)[O-]", "melting point": "73 to 76"}
{"smiles": "N#Cc1ccc(Cl)cc1NC(=O)c1ccc(Br)cc1", "melting point": "151 to 152"}
{"smiles": "COc1ccc(OC2COc3ccc(O)cc3C2O)cc1", "note": "(stereo not given)", "melting point": "187 to 189"}
{"smiles": "CC(=O)Nc1c([N+](=O)[O-])cnn1-c1c(F)c(F)c(C(F)(F)F)c(F)c1F", "melting point": "136 to 138"}
{"smiles": "CCC(CC)Oc1cc(C)nc2c1COCN2c1c(C)cc(Cl)cc1C", "melting point": "190 to 192"}
{"smiles": "CSc1nccc(C)c1NC(=O)CCCCCCCCSc1nc2ccccc2s1", "melting point": "88 to 90"}
{"smiles": "CCOP(=O)(Cc1ccc(N(C(=O)c2cc3c(s2)-c2c(SC)sc(C(N)=O)c2CC3)c2ccc(CP(=O)(OCC)OCC)cc2)cc1)OCC", "melting point": "262 to 263"}
{"smiles": "COc1cc(COc2nn(Cc3ccccc3)cc2C(N)=O)ccc1OCc1nc(-c2ccco2)oc1C", "melting point": "160 to 161"}
{"smiles": "O=C1c2cccc([N+](=O)[O-])c2C(=O)N1CCO", "melting point": 93}
{"smiles": "COc1cc(O)c2c(c1)CC(C(=O)Nc1ccc(CC3SC(=O)NC3=O)cc1)SCC2=O", "note": "(stereo not given)", "melting point": "131 to 134"}
{"smiles": "COc1cc(-c2ccccc2)nc(SCC(=O)O)n1", "melting point": "157 to 159"}
{"smiles": "COc1cc(OC)c2c(=O)[nH]c(-c3ccc(N(CCO)CCO)cc3)nc2n1", "melting point": "277 to 279"}
{"smiles": "CC(=O)OC1CSC(Oc2ccc3oc(C)nc3c2)C(OC(C)=O)C1OC(C)=O", "note": "(stereo not given)", "melting point": 168}
{"smiles": "CCOC(=O)c1c(C)cc2cnc(-c3ccccc3)nc2c1C", "melting point": "85 to 86"}
{"smiles": "Nc1cc(=O)nc(Nc2ccc(Cl)cc2)n1-c1ccccc1", "melting point": "233 to 237"}
{"smiles": "O=c1[nH]cnc2c1cnn2CC(O)c1ccccc1", "note": "(stereo not given)", "melting point": "270 to 271"}
{"smiles": "COc1cccc(N2CC(=O)N(C)C(=O)N2)c1", "melting point": "120 to 122"}
{"smiles": "CC(=O)NNC(=O)N(O)C1c2ccccc2Oc2ccccc21", "melting point": "173 to 176"}
{"smiles": "CC1(c2ccc(-c3ccccc3)cc2)CC(=O)NN1", "note": "(stereo not given)", "melting point": "191 to 192"}
{"smiles": "C1=C(c2cccc3[nH]ccc23)CN(CCc2ccccc2)CC1", "melting point": 205}
{"smiles": "N#Cc1ccc(CBr)c2ccccc12", "melting point": "131 to 133"}
{"smiles": "NS(=O)(=O)c1ccc(-c2c(-c3ccccc3)noc2CC(=O)O)cc1", "melting point": 61}
{"smiles": "Cc1cccc(C(=O)N[C@@H](CC(C)C)C(=O)N[C@@H](C(C)C)[C@@H](O)c2c(-c3ccccc3)c2=O)n1", "melting point": "98 to 100"}
{"smiles": "Cn1c(N)c(CN2CCN(c3cccc4c3OCCO4)CC2)c(=O)n1-c1ccccc1", "melting point": "222 to 224"}
{"smiles": "C=CCn1nc(C(=O)NC)cc1OCCCN1CCN(c2cccc3sccc23)CC1", "melting point": "138 to 140"}
{"smiles": "Oc1ccc2cc(Br)ccc2c1Cl", "melting point": "100 to 101"}
{"smiles": "Cn1c(=O)n(-c2ccccc2)c(=O)n1SC(Cl)(Cl)Cl", "melting point": 154}
{"smiles": "COc1ccc(N2CCN(c3c(C)c(C)c4c(c3C)C(=O)C(C)(C)O4)CC2)cc1OC", "melting point": "153 to 154"}
{"smiles": "Cc1cc(O)c(SCC2CCCCC2)c(=O)o1", "melting point": "81.5 to 83"}
{"smiles": "CCOC(=O)C(C)=C(CC)NC(=O)Nc1cc(C(=O)OC(C)C)c(Cl)cc1F", "melting point": "132 to 133"}
{"smiles": "CN1CCN(c2ncc3c(=O)c(C(=O)O)cn(Cc4ccccc4)c3n2)CC1", "melting point": "251 to 255"}
{"smiles": "CC12CC(=O)C3C(CCC4CC(O)CCC43C)C1CCC2C(=O)CCc1ccccn1", "note": "(stereo not given)", "melting point": "179 to 180"}
{"smiles": "CNC(=O)CN1CCc2cc(Nc3ncc(Cl)c(Nc4ccc(N5CCOCC5)cc4OC)n3)c(OC)cc2CC1", "melting point": "113 to 130"}
{"smiles": "CC12CC(N3CCC(O)CC3)C(O)CC1CCC1C2CCC2(C)C(O)C(N3CCC4(CC3)OCCO4)CC12", "note": "(stereo not given)", "melting point": "199 to 201"}
{"smiles": "CC(C)c1ccc(-c2nc(-c3cccc(C(=O)O)c3)ns2)cc1", "melting point": "165 to 167"}
{"smiles": "CNS(=O)(=O)c1ccc(Nc2cc(N3CCCC3)cc(-c3ccc(OC(F)(F)F)cc3)n2)cc1", "melting point": "83 to 85"}
{"smiles": "COc1cc(-c2nc(-c3ccc(N(C)C)cc3)c(C)s2)cc(OC)c1OC(C)=O", "melting point": "247 to 249"}
{"smiles": "NS(=O)(=O)c1ccc(-n2nccc2-c2ccc(Cl)cc2)cc1", "melting point": "185 to 187"}
{"smiles": "CC(=O)COc1c(-c2ccccc2)c(=O)[nH]c2cc(Cl)ccc12", "melting point": "185 to 186"}
{"smiles": "CCOC(=O)c1cc(-c2ccccc2)nn1Cc1ccc(Cl)cc1Cl", "melting point": "104 to 107"}
{"smiles": "CCOC(=O)C1=C(COCC(C)(O)Cc2ccccn2)NC(C)=C(C(=O)OC)C1c1cccc(Cl)c1Cl", "note": "(stereo not given)", "melting point": "163 to 164"}
{"smiles": "c1cc(Nc2ccc3[nH]ncc3c2)ccn1", "melting point": "189 to 190"}
{"smiles": "CC(Oc1ccc(Oc2cnc3cc(Cl)ccc3n2)cc1)C(=O)Nc1ccc(OC(F)(F)C(F)F)cc1", "note": "(stereo not given)", "melting point": "146 to 148"}
{"smiles": "Cc1nc2ccccc2n1CCOCCCl", "melting point": "96 to 98"}
{"smiles": "COc1ccc(F)cc1Oc1c(Cl)ncnc1NS(=O)(=O)c1ccc(Cl)cc1", "melting point": "169 to 171"}
{"smiles": "COP(=O)(OC)C(C)C(NC(=O)OCc1ccccc1)C(=O)N[C@@H](Cc1ccccc1)[C@H](O)C(=O)N1C[C@@H](Cl)C[C@H]1C(=O)NC(C)(C)C", "note": "(stereo not given in full)", "melting point": "93 to 100"}
{"smiles": "Cc1cccc(N2CCN(c3ccc(Oc4ccccc4)nn3)CC2)c1", "melting point": 123}
{"smiles": "CC1=C(C(=O)NC(C)(C)C)C(c2ccccc2Br)C(C(=O)OC(C)C)=C(COCCn2c(C)nc3cnccc32)N1", "note": "(stereo not given)", "melting point": "160 to 165"}
{"smiles": "CC1(C)COc2ccc(OC(F)(F)F)cc2C(O)(c2ccccn2)C1", "note": "(stereo not given)", "melting point": 76}
{"smiles": "Cc1c(OC(F)F)ccnc1CSc1nc2ccc(O)cc2[nH]1", "melting point": "214 to 215"}
{"smiles": "O=C1c2ccccc2CCn2cc(SC(F)(F)F)cc21", "melting point": "77 to 78"}
{"smiles": "O=C1C=CC2(C=C1)CC(=O)N2OCc1ccccc1", "melting point": "77 to 79"}
{"smiles": "CCN(CC)CC#CCNC(=O)C(O)(c1ccccc1)C1CCCCC1", "note": "(stereo not given)", "melting point": "102 to 104"}
